From PubChem BioAssay (NCI)
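Cultured in 96-well plates, cells were exposed to test compound for 48 hours across five concentrations. TGI: total growth inhibition.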

Experiments:
Test in all cases: NCI anticancer screen, dose series, 48 h
SK-MEL-28 melanoma = test system: SK-MEL-28 melanoma
PC-3 prostate = test system: PC-3 prostate
IGROV1 ovarian = test system: IGROV1 ovarian
MALME-3M melanoma = test system: MALME-3M melanoma
HS 578T breast = test system: HS 578T breast
MDA-N = test system: MDA-N
MDA-MB-435 = test system: MDA-MB-435
786-0 renal = test system: 786-0 renal
OVCAR-5 ovarian = test system: OVCAR-5 ovarian
A549 NSCLC = test system: A549 NSCLC
SK-MEL-2 melanoma = test system: SK-MEL-2 melanoma
CCRF-CEM leukemia = test system: CCRF-CEM leukemia
A498 renal = test system: A498 renal
NCI-H460 lung = test system: NCI-H460 lung
OVCAR-4 ovarian = test system: OVCAR-4 ovarian
SNB-19 CNS = test system: SNB-19 CNS
LOX IMVI melanoma = test system: LOX IMVI melanoma
SW-620 colon = test system: SW-620 colon
MCF7 breast = test system: MCF7 breast
HL-60(TB) leukemia = test system: HL-60(TB) leukemia
CAKI-1 renal = test system: CAKI-1 renal
UACC-257 melanoma = test system: UACC-257 melanoma
SNB-75 CNS = test system: SNB-75 CNS
NCI-H522 lung = test system: NCI-H522 lung
SR leukemia = test system: SR leukemia
HCT-116 colon = test system: HCT-116 colon
RXF 393 renal = test system: RXF 393 renal
T-47D breast = test system: T-47D breast
HCC-2998 colon = test system: HCC-2998 colon
HCT-15 colon = test system: HCT-15 colon
NCI-H226 lung = test system: NCI-H226 lung
TK-10 renal = test system: TK-10 renal
OVCAR-3 ovarian = test system: OVCAR-3 ovarian
NCI-H23 lung = test system: NCI-H23 lung
ACHN renal = test system: ACHN renal
K-562 leukemia = test system: K-562 leukemia
SF-268 CNS = test system: SF-268 CNS
BT-549 breast = test system: BT-549 breast
SF-295 CNS = test system: SF-295 CNS
HT29 colon = test system: HT29 colon
HOP-62 NSCLC = test system: HOP-62 NSCLC
SK-MEL-5 melanoma = test system: SK-MEL-5 melanoma
SF-539 CNS = test system: SF-539 CNS
KM12 colon = test system: KM12 colon
COLO 205 colon = test system: COLO 205 colon
UO-31 renal = test system: UO-31 renal
MDA-MB-231 breast = test system: MDA-MB-231 breast
HOP-92 NSCLC = test system: HOP-92 NSCLC
M14 melanoma = test system: M14 melanoma
SN12C renal = test system: SN12C renal
U251 CNS = test system: U251 CNS
NCI/ADR-RES ovarian = test system: NCI/ADR-RES ovarian
DU-145 prostate = test system: DU-145 prostate
UACC-62 melanoma = test system: UACC-62 melanoma
RPMI-8226 leukemia = test system: RPMI-8226 leukemia
OVCAR-8 ovarian = test system: OVCAR-8 ovarian
MOLT-4 leukemia = test system: MOLT-4 leukemia
EKVX NSCLC = test system: EKVX NSCLC
SK-OV-3 ovarian = test system: SK-OV-3 ovarian

Question: Which results are given for CC(=O)OC1C[C@@H](C)C2(CC(c3ccoc3)OC2=O)C2CCC(O)C3(CO3)C12CO (stereo partly drawn)?
Answer: TGI (SK-MEL-28 melanoma): > 100 µM; TGI (PC-3 prostate): > 100 µM; TGI (IGROV1 ovarian): > 100 µM; TGI (MALME-3M melanoma): > 100 µM; TGI (HS 578T breast): > 100 µM; TGI (MDA-N): > 100 µM; TGI (MDA-MB-435): > 100 µM; TGI (786-0 renal): > 100 µM; TGI (OVCAR-5 ovarian): > 100 µM; TGI (A549 NSCLC): > 100 µM; TGI (SK-MEL-2 melanoma): > 100 µM; TGI (CCRF-CEM leukemia): > 100 µM; TGI (A498 renal): > 100 µM; TGI (NCI-H460 lung): > 100 µM; TGI (OVCAR-4 ovarian): > 100 µM; TGI (SNB-19 CNS): > 100 µM; TGI (LOX IMVI melanoma): > 100 µM; TGI (SW-620 colon): > 100 µM; TGI (MCF7 breast): > 100 µM; TGI (HL-60(TB) leukemia): > 100 µM; TGI (CAKI-1 renal): > 100 µM; TGI (UACC-257 melanoma): > 100 µM; TGI (SNB-75 CNS): > 100 µM; TGI (NCI-H522 lung): > 100 µM; TGI (SR leukemia): > 100 µM; TGI (HCT-116 colon): > 100 µM; TGI (RXF 393 renal): > 100 µM; TGI (T-47D breast): > 100 µM; TGI (HCC-2998 colon): > 100 µM; TGI (HCT-15 colon): > 100 µM; TGI (NCI-H226 lung): > 100 µM; TGI (TK-10 renal): > 100 µM; TGI (OVCAR-3 ovarian): > 100 µM; TGI (NCI-H23 lung): > 100 µM; TGI (ACHN renal): > 100 µM; TGI (K-562 leukemia): > 100 µM; TGI (SF-268 CNS): > 100 µM; TGI (BT-549 breast): > 100 µM; TGI (SF-295 CNS): > 100 µM; TGI (HT29 colon): > 100 µM; TGI (HOP-62 NSCLC): > 100 µM; TGI (SK-MEL-5 melanoma): > 100 µM; TGI (SF-539 CNS): > 100 µM; TGI (KM12 colon): > 100 µM; TGI (COLO 205 colon): > 100 µM; TGI (UO-31 renal): > 100 µM; TGI (MDA-MB-231 breast): > 100 µM; TGI (HOP-92 NSCLC): > 100 µM; TGI (M14 melanoma): > 100 µM; TGI (SN12C renal): > 100 µM; TGI (U251 CNS): > 100 µM; TGI (NCI/ADR-RES ovarian): > 100 µM; TGI (DU-145 prostate): > 100 µM; TGI (UACC-62 melanoma): > 100 µM; TGI (RPMI-8226 leukemia): > 100 µM; TGI (OVCAR-8 ovarian): > 100 µM; TGI (MOLT-4 leukemia): > 100 µM

Question: How did the TGI (SK-MEL-28 melanoma) turn out when COC(=O)C(Cc1ccc(OC)cc1O)NC(=O)OC(C)(C)C (stereo not drawn) was run?
Answer: > 100 µM

Question: What about the TGI (PC-3 prostate) of the same compound?
Answer: > 100 µM

Question: What about the TGI (IGROV1 ovarian) of the same compound?
Answer: > 100 µM

Question: What about the TGI (MALME-3M melanoma) of the same compound?
Answer: > 100 µM

Question: And the TGI (HS 578T breast)?
Answer: > 100 µM

Question: And the TGI (MDA-N)?
Answer: > 100 µM

Question: And the TGI (MDA-MB-435)?
Answer: > 100 µM

Question: And the TGI (786-0 renal)?
Answer: > 100 µM

Question: And the TGI (OVCAR-5 ovarian)?
Answer: > 100 µM

Question: What about the TGI (A549 NSCLC) of the same compound?
Answer: > 100 µM

Question: What about the TGI (SK-MEL-2 melanoma) of the same compound?
Answer: > 100 µM

Question: And the TGI (CCRF-CEM leukemia)?
Answer: > 100 µM

Question: And the TGI (NCI-H460 lung)?
Answer: > 100 µM

Question: And the TGI (OVCAR-4 ovarian)?
Answer: > 100 µM

Question: What about the TGI (SNB-19 CNS) of the same compound?
Answer: > 100 µM

Question: And the TGI (LOX IMVI melanoma)?
Answer: > 100 µM

Question: And the TGI (SW-620 colon)?
Answer: > 100 µM

Question: And the TGI (MCF7 breast)?
Answer: > 100 µM

Question: And the TGI (HL-60(TB) leukemia)?
Answer: > 100 µM

Question: What about the TGI (CAKI-1 renal) of the same compound?
Answer: > 100 µM

Question: And the TGI (UACC-257 melanoma)?
Answer: 95 µM

Question: What about the TGI (SNB-75 CNS) of the same compound?
Answer: > 100 µM

Question: What about the TGI (NCI-H522 lung) of the same compound?
Answer: > 100 µM

Question: What about the TGI (SR leukemia) of the same compound?
Answer: > 100 µM

Question: What about the TGI (HCT-116 colon) of the same compound?
Answer: > 100 µM

Question: What about the TGI (RXF 393 renal) of the same compound?
Answer: > 100 µM

Question: And the TGI (T-47D breast)?
Answer: > 100 µM

Question: And the TGI (HCC-2998 colon)?
Answer: > 100 µM

Question: What about the TGI (HCT-15 colon) of the same compound?
Answer: > 100 µM

Question: What about the TGI (NCI-H226 lung) of the same compound?
Answer: > 100 µM

Question: And the TGI (TK-10 renal)?
Answer: > 100 µM

Question: And the TGI (OVCAR-3 ovarian)?
Answer: > 100 µM

Question: And the TGI (EKVX NSCLC)?
Answer: > 100 µM

Question: What about the TGI (NCI-H23 lung) of the same compound?
Answer: > 100 µM

Question: What about the TGI (ACHN renal) of the same compound?
Answer: > 100 µM

Question: And the TGI (K-562 leukemia)?
Answer: > 100 µM

Question: And the TGI (SF-268 CNS)?
Answer: > 100 µM

Question: What about the TGI (BT-549 breast) of the same compound?
Answer: > 100 µM

Question: And the TGI (SF-295 CNS)?
Answer: > 100 µM

Question: What about the TGI (HT29 colon) of the same compound?
Answer: > 100 µM

Question: What about the TGI (HOP-62 NSCLC) of the same compound?
Answer: > 100 µM

Question: And the TGI (SK-MEL-5 melanoma)?
Answer: > 100 µM

Question: What about the TGI (SK-OV-3 ovarian) of the same compound?
Answer: > 100 µM

Question: What about the TGI (SF-539 CNS) of the same compound?
Answer: > 100 µM

Question: What about the TGI (KM12 colon) of the same compound?
Answer: > 100 µM

Question: What about the TGI (COLO 205 colon) of the same compound?
Answer: > 100 µM

Question: And the TGI (UO-31 renal)?
Answer: > 100 µM

Question: What about the TGI (MDA-MB-231 breast) of the same compound?
Answer: > 100 µM

Question: And the TGI (M14 melanoma)?
Answer: > 100 µM

Question: And the TGI (SN12C renal)?
Answer: > 100 µM

Question: What about the TGI (U251 CNS) of the same compound?
Answer: > 100 µM

Question: What about the TGI (NCI/ADR-RES ovarian) of the same compound?
Answer: > 100 µM

Question: What about the TGI (DU-145 prostate) of the same compound?
Answer: > 100 µM

Question: And the TGI (UACC-62 melanoma)?
Answer: > 100 µM

Question: And the TGI (OVCAR-8 ovarian)?
Answer: > 100 µM

Question: And the TGI (MOLT-4 leukemia)?
Answer: > 100 µM
